Tests used:
[1] = system: Aspergillus niger ATCC 6275; experiment: Synergistic antimicrobial activity as MIC (96-well microplate, optical density at 620 nm), Aspergillus niger; assay type: cell-based
Description: (§1) FIC Index=(MICa with B/MICa)+(MICb with A/MICb)
(§2) with: • MICa with B: minimum concentration of product A in the combination A+B which makes it possible to obtain an inhibitory effect • MICb with A: minimum concentration of product B in the combination A+B which makes it possible to obtain an inhibitory effect. • MICa: minimum inhibitory concentration of product A alone. • MICb: minimum inhibitory concentration of product B alone.
(§3) As regards the combinations tested, MICa with b and MICb with a are the respective concentrations of A and of B in the combinations which make it possible to obtain a microbial growth percentage of less than or equal to 20%.
(§4) When the FIC index value is less than or equal to 1, it is considered that the combination of test compounds has a synergistic effect.
The microbial strain Aspergillus niger ATCC 6275, and a double-concentration Sabouraud broth liquid culture medium supplemented with polyoxyethylenated (20 OE) sorbitan monopalmitate (Tween 40 from Croda) and Phytagel© BioReagent were used (i.e. a mixture of 5 g of Phytagel+0.6 g Tween 40+60 g of Sabouraud broth).
(§5) A 96-well microplate and an […] of 32.5° C. are used.
(§6) The incubation time of the microplate is: • from 18 to 24 h under aerobic conditions for Candida albicans ATCC 10231; • from 24 to 30 h under aerobic conditions for Aspergillus niger ATCC 6275.
(§7) A 10% (weight/volume) stock solution was prepared by mixing 1 g of compound in 9 ml of aqueous 1% o agar solution. Successive dilutions were made with the 1% o agar solution. • Test of compounds A and B alone
(§8) 50 μl of each of the daughter solutions obtained containing compound A or B are added to the microplate wells. 100 μl of Sabouraud liquid nutrient broth inoculated with the strain Aspergillus niger and 50 μl of aqueous 1% o agar solution are also added thereto. • Test of compounds A and B as a mixture
(§9) 50 μl of each of the daughter solutions obtained containing compound A and 50 μl of each of the daughter solutions obtained containing compound B are added to the microplate wells. 100 μl of Sabouraud liquid nutrient broth inoculated at double concentration with the strain Aspergillus niger are also added thereto.
A positive microbial growth control was also prepared. The positive microbial growth control corresponds to a mixture of 100 μl of aqueous 1% o agar solution with 100 μl of Sabouraud liquid nutrient broth inoculated at double concentration with the strain Aspergillus niger in the absence of compounds A and B.
An absorbance control was performed in parallel on compounds A and B alone. This control corresponds to 100 μl of double concentration sterile Sabouraud liquid nutrient broth+100 μl of double concentration compound A or B.
In the three cases (absorbance control, growth control and test), the final volume present in each of the microplate wells is 200 μl.
In the two cases (test and control), the inoculum represents the concentration of the Aspergillus niger strain present in the final volume of the wells (200 μl) and is between 2 and 6×10^5 cfu/ml of Aspergillus niger.

[2] = system: Candida albicans ATCC 10231; experiment: Synergistic antimicrobial activity as MIC (96-well microplate, optical density at 620 nm), Candida albicans; assay type: cell-based
Description: as §1, §2, §3, §4
The microbial strain Candida albicans ATCC 10231 and a double-concentration Sabouraud broth liquid culture medium were used.
as §5, §6, §7, §8, §9
The test as described above (tests, absorbance control and growth control) was performed again to test the combination A and B on the Candida albicans strain.

[3] = Aspergillus niger, growth <= 20%

**Q.** With CCOc1cc(CCC(C)=O)ccc1O [A, 4-(3-ethoxy-4-hydroxyphenyl)butan-2-one] as the compound, how does the microbial growth percentage ([1]; 0.025 A, 0 B1 (weight %)) read?
**A.** 42%

**Q.** What about the microbial growth percentage ([1]; 0.025 A, 0 B3 (weight %)) of the same compound?
**A.** 39%

**Q.** And the microbial growth percentage ([1]; 0.05 A, 0 B1 (weight %))?
**A.** 25%

**Q.** And the microbial growth percentage ([1]; 0.05 A, 0 B3 (weight %))?
**A.** 32%

**Q.** And the microbial growth percentage ([1]; 0.1 A, 0 B1 (weight %))?
**A.** 10%

**Q.** What about the microbial growth percentage ([1]; 0.1 A, 0 B3 (weight %)) of the same compound?
**A.** 12%

**Q.** And the “% MIC of A alone” value ([1]; Aspergillus niger, test series with B1, growth <= 20%)?
**A.** 0.1%

**Q.** What about the “% MIC of A alone” value ([1]; Aspergillus niger, test series with B3, growth <= 20%) of the same compound?
**A.** 0.1%

**Q.** And the microbial growth percentage ([2]; 0.025 A, 0 B2 (weight %))?
**A.** 81%

**Q.** What about the microbial growth percentage ([2]; 0.025 A, 0 B3 (weight %)) of the same compound?
**A.** 78%

**Q.** What about the microbial growth percentage ([2]; 0.05 A, 0 B2 (weight %)) of the same compound?
**A.** 60%

**Q.** And the microbial growth percentage ([2]; 0.05 A, 0 B3 (weight %))?
**A.** 61%

**Q.** What about the microbial growth percentage ([2]; 0.1 A, 0 B2 (weight %)) of the same compound?
**A.** 27%

**Q.** What about the microbial growth percentage ([2]; 0.1 A, 0 B3 (weight %)) of the same compound?
**A.** 25%

**Q.** What about the microbial growth percentage ([2]; 0.2 A, 0 B2 (weight %)) of the same compound?
**A.** 4%

**Q.** And the microbial growth percentage ([2]; 0.2 A, 0 B3 (weight %))?
**A.** 3%

**Q.** And the “% MIC A” value ([2]; A alone, Candida albicans, test series with B2, growth <= 20%)?
**A.** 0.2%

**Q.** What about the “% MIC of A alone” value ([2]; Candida albicans, test series with B3, growth <= 20%) of the same compound?
**A.** 0.2%

**Q.** How did the microbial growth percentage ([1]; 0 A, 0.125 B1 (weight %)) turn out when OCCCO [B1, 1,3-propanediol] was run?
**A.** 77%

**Q.** And the microbial growth percentage ([1]; 0 A, 0.25 B1 (weight %))?
**A.** 62%

**Q.** And the microbial growth percentage ([1]; 0 A, 0.5 B1 (weight %))?
**A.** 50%

**Q.** And the microbial growth percentage ([1]; 0 A, 1 B1 (weight %))?
**A.** 36%

**Q.** What about the microbial growth percentage ([1]; 0 A, 2 B1 (weight %)) of the same compound?
**A.** 11%

**Q.** And the “% MIC of B1 alone” value [1, 3]?
**A.** 2%

**Q.** For CCCCCCC(O)CO (centres unmarked) [B2, 1,2-octanediol], which microbial growth percentage ([2]; 0 A, 0.025 B2 (weight %)) is on record?
**A.** 79%

**Q.** What about the microbial growth percentage ([2]; 0 A, 0.05 B2 (weight %)) of the same compound?
**A.** 60%

**Q.** What about the microbial growth percentage ([2]; 0 A, 0.1 B2 (weight %)) of the same compound?
**A.** 23%

**Q.** What about the microbial growth percentage ([2]; 0 A, 0.2 B2 (weight %)) of the same compound?
**A.** 0%

**Q.** What about the “MIC B2” value ([2]; B2 alone, Candida albicans, growth <= 20%) of the same compound?
**A.** 0.2%

**Q.** For CCCCCCCCC(O)CO (centres unmarked) [B3, 1,2-decanediol], which microbial growth percentage ([1]; 0 A, 0.0125 B3 (weight %)) is on record?
**A.** 42%

**Q.** What about the microbial growth percentage ([1]; 0 A, 0.025 B3 (weight %)) of the same compound?
**A.** 10%

**Q.** What about the “% MIC of B3 alone” value [1, 3] of the same compound?
**A.** 0.025%

**Q.** And the microbial growth percentage ([2]; 0 A, 0.0125 B3 (weight %))?
**A.** 45%

**Q.** What about the microbial growth percentage ([2]; 0 A, 0.025 B3 (weight %)) of the same compound?
**A.** 3%

**Q.** What about the “% MIC of B3 alone” value ([2]; Candida albicans, growth <= 20%) of the same compound?
**A.** 0.025%
